Assay results taken from US9770045B2, “Preservation of animal feed and hydrolysis of polysaccharides using amino acids as salts or with acids” (priority 2015, dated 2017).
Where a name gives a salt, the structure may show the parent alone.

Columns and labels:
[1] = 60° C., one hour (FIG. 3)
Method: (§1) Seaweed Hydrolysis. […] The samples were heated to 60° C. Approximately 0.1 grams of seaweed was measured and added to each sample. The acid/seaweed mixtures were placed in an incubator set at 60° C. for one hour. At twenty minute intervals, 0.4 mL were taken from the samples and neutralized to a high pH (>10) with 0.6 mL of a concentrated aqueous NaOH solution.
(§2) Seaweed DNS Assay. To each of the neutralized mixtures, 0.2 mL of DNS solution (1% dinitrosalicyclic acid, 0.02% phenol, 0.25 M NaOH) was added. These samples were then placed in boiling water for approximately ten minutes until the brown color remained stable. The samples were then removed and 0.4 mL of a 40% potassium sodium tartrate solution was added to stabilize the color. The solutions were allowed to cool to room temperature and then the absorbance was recorded at 570 nm.

[2] = for rate in hydrolyzing switch grass: 60° C., one hour (FIG. 4)
Method: as §1, with “Switch Grass” for “Seaweed”, “switch grass” for “seaweed”, “acid/switch grass” for “acid/seaweed”, “0, 10, 20, 40, and 60 minutes,” for “twenty minute intervals,”
as §2, with “Switch Grass” for “Seaweed”, “Then 0.2 mL of each sample was mixed with 0.2” for “The samples were then removed and 0.4”, “and 1 mL of deionized water.” for “was added to stabilize the color.”

[3] = Cellulose (carboxymethylcellulose) hydrolysis, DNS sugar assay; conditions: carboxymethylcellulose (FIG. 2, FIG. 5)
Excerpt: Dinitrosalicyclic Acid Sugar Assay. The DNS sugar assay utilizes the reduction of dinitrosalicyclic acid by simple monosaccharides to create a change in color, respective the concentration of sugar in each sample (Rivers). A 1% dinitrosalicyclic acid solution was created with 0.25 M NaOH and […]. Another solution of 40% Sodium Potassium Tartrate was made to act as a color stabilizer to be added to the sample after the reaction. This procedure requires the experimental sample to be mixed with the DNS Assay solution and heated at approximately 100° C. for ten minutes. After the colorimetric reaction has occurred, the sodium potassium tartrate solution is added to stabilize the color change. The resulting color change can be measured using the wavelength of 570 nm.
Cellulose Hydrolysis. 5 mL of each acid was added to a glass container. Then, 0.1 grams of carboxymethylcellulose was slowly poured in to each sample. The containers were then capped and placed in a 60° C. incubator. At specific time intervals, 0.4 mL were taken and neutralized by 0.6 mL of a strong KOH solution to a pH above 10 in 1.5 mL microfuge tubes. Then 0.2 mL of the DNS Assay solution was added to each sample, which were then placed in a boiling water bath for ten minutes. […] The absorbance of the samples were then measured at 570 nm in a UV-Vis spectrophotometer and compared to a standard curve.

Structure (SMILES)	rate in hydrolyzing seaweed [1]	rate in hydrolyzing switch grass [2]	pH change after switch grass hydrolysis [2]	hydrolysis rate [3]
Cl [6M HCl, hydrochloric acid, reference compound]	about the same rate	about the same rate	increased	
NCC(=O)O [6M Glycine—HCl, glycine hydrochloride]	about the same rate	about the same rate	lowered	equal to that of Oil Safe AR®
